Assay results published in PubChem BioAssay AID2060891 (Molecular Pharmacology Branch, DTP, NCI, 2025).

Tested on: K98450-129-R-PDC complex spheroid growth, percent test/control
Experiment: Anticancer human tumor K98450-129-R-PDC patient-derived colon adenocarcinoma cell line growth inhibition [RAS]
Settings: for IC50: curve of first compound; for viability, T/C: stronger effect = lower value
Description: RAS pathway inhibitors in Combinations in Complex Spheroids
A high-throughput screen of multi-cell type tumor spheroids was designed to identify active combinations of RAS pathway inhibitors and targeted small molecules. Complex spheroids include a stromal component modeled by human endothelial cells (HUVEC) and fibroblasts modeled by human mesenchymal stem cells (MSCs). The concentration ranges selected for each drug and investigational agent were based upon clinically achievable concentrations if the clinical Cmax of the agent was known.
Compounds. The drugs and investigational agents: abemaciclib (NSC768073), cobimetinib (NSC768068), divarasib (GDC6063, NSC841802), docetaxel (NSC628503), GDC-1971 (RLY-1971, NSC841576), gemcitabine (NSC613327), inavolisib (NSC800729), ipatasertib (NSC767898), KB-0742 (NSC834161), MRTX-1133 (NSC836407), osimertinib (NSC779217), RMC-4630 (NSC839698), RMC-6236 (NSC851965), RMC-6291 (NSC852671), Ro-3306 (NSC812927), sapanisertib (NSC764658), SN-38 (NSC673596), staurosporine (NSC755774), SY5609 (NSC837396), and tovorafenib (DAY101, NSC766906), were obtained from the National Cancer Institute (NCI) Developmental Therapeutics Program Chemical Repository. The FDA-approved anticancer drug set is available from the NCI Developmental Therapeutics Program. […] The stock solutions were prepared in dimethyl sulfoxide (DMSO, Sigma-Aldrich, St. Louis, MO, cat. D2650) at 800-fold the tested concentration and stored at -70 degrees C prior to their use. All drugs and investigational agents were tested over a range starting from a high concentration at or near the clinical Cmax and decreasing in half-log increments. If the clinical Cmax for an agent had not been determined, the highest concentration tested was 10 microM.
Cell Culture. All cells were maintained in an incubator at 37 degrees C and 5% CO2 with 95% humidity. The PDC lines were cultured according to standard operating procedures established by the NCI PDMR. All PDCs were thawed and cultured in Matrigel-coated flasks prepared with a working solution of 1X Ham's F-12 nutrient mix, without supplementation (Invitrogen, Waltham, MA, cat. 11765054), 100 U/mL penicillin-streptomycin (Invitrogen, cat. 15140122), and 2.5% Matrigel (Corning Inc., Corning, NY, cat. 354248) for the first three passages. The 362531-283-R-J2-PDC and 782815-120-R-J1-PDC lines were cultured in 6C/Colon 1B media, which includes advanced DMEM/F-12 (Thermo Fisher Scientific, cat. 12634028), 10 mM HEPES (Thermo Fisher Scientific, cat. 15630080), 1X GlutaMAX supplement (Thermo Fisher Scientific, cat. 35050061), 0.1 mg/mL primocin (InvivoGen, San Diego, CA, cat. ant-pm-2), 10% defined fetal bovine serum, heat inactivated (HyClone Laboratories Inc., Logan, UT, cat. SH30070.03HI), 50% L-WRN conditioned media (ATCC, cat. CRL-3276), 1.25 mM N-Acetyl-L-cysteine (Sigma-Aldrich, cat. A9165), 10 mM nicotinamide (Sigma-Aldrich, cat. N0636), 1X B-27 supplement (Thermo Fisher Scientific, cat. 17504044), 1X N-2 supplement (Thermo Fisher Scientific, cat. 17502048), 50 ng/mL human EGF (Thermo Fisher Scientific, cat. PHG0311), and 10 microM Y-27632 dihydrochloride (Tocris Bioscience, cat. 1254). The K12877-001-R-J1-PDC line was cultured in 6I media, which includes all 6C/Colon 1B media plus 10 ng/mL human FGF-10 (PeproTech, cat. 100-26), 1 ng/mL human FGF-2 (PeproTech, cat. 100-18B), 1 µM prostaglandin E2 (Tocris Bioscience, cat. 2296), […] hydrocortisone (Sigma-Aldrich, cat. H4001), and […] bovine insulin (Sigma-Aldrich, cat. I6634). The K86415-001-R-J1-PDC line was cultured in 6D media, which includes all 6C/Colon 1B media components minus the L-WRN conditioned media. The 485176-168-R4-J1-PDC was cultured in PANC media, which includes all 6C/Colon 1B media plus 100 ng/mL human FGF-10 (PeproTech, cat. 100-26), 500 nM SB-431542 (Selleckchem, cat. S1067), and 10 nM gastrin (Tocris Bioscience, cat. 3006). […]
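Further: spheroids exposed to agents for seven days before the viability readout.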
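Wherever viability, T/C is given: luminescence used as a proxy for viable cell amount.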

For `NC1c2ccccc2OC12CCN(c1cnc3c(N4CCCc5ncccc54)n[nH]c3n1)CC2` (configuration not stated) + CCn1c(-c2cc(N3CCN(C)CC3)cnc2C(C)OC)c2c3cc(ccc31)-c1csc(n1)CC(NC(=O)C1CC1C)C(=O)N1CCCC(N1)C(=O)OCC(C)(C)C2, the IC50 (second compound 0.000949 µM) was 0.116 µM, the IC50 (second compound 0.003 µM) was 0.0631 µM and the IC50 (second compound 0.00949 µM) was under 0.0316 µM. The IC50 (second compound 0.03 µM) was under 0.0316 µM, the IC50 (second compound 0.0949 µM) was under 0.0316 µM and the IC50 (second compound 0.3 µM) was under 0.0316 µM. The viability, T/C (second compound 0.000949 µM, first compound 0.0316 µM) was 85.1%, the viability, T/C (second compound 0.000949 µM, first compound 0.1 µM) was 54.5% and the viability, T/C (second compound 0.000949 µM, first compound 0.316 µM) was 20.4%. The viability, T/C (second compound 0.000949 µM, first compound 1 µM) was 8.29%, the viability, T/C (second compound 0.000949 µM, first compound 3.16 µM) was 8.32% and the viability, T/C (second compound 0.000949 µM, first compound 10 µM) was 8.57%. The viability, T/C (second compound 0.003 µM, first compound 0.0316 µM) was 69.2%, the viability, T/C (second compound 0.003 µM, first compound 0.1 µM) was 37.2% and the viability, T/C (second compound 0.003 µM, first compound 0.316 µM) was 8.71%. For the same compound, the viability, T/C (second compound 0.003 µM, first compound 1 µM) was 5.81%, the viability, T/C (second compound 0.003 µM, first compound 3.16 µM) was 5.89% and the viability, T/C (second compound 0.003 µM, first compound 10 µM) was 8.17%. The viability, T/C (second compound 0.00949 µM, first compound 0.0316 µM) was 44.1%, the viability, T/C (second compound 0.00949 µM, first compound 0.1 µM) was 11.7% and the viability, T/C (second compound 0.00949 µM, first compound 0.316 µM) was 6.79%. The viability, T/C (second compound 0.00949 µM, first compound 1 µM) was 5.19%, the viability, T/C (second compound 0.00949 µM, first compound 3.16 µM) was 5.86% and the viability, T/C (second compound 0.00949 µM, first compound 10 µM) was 7.32%. The viability, T/C (second compound 0.03 µM, first compound 0.0316 µM) was 15.4%, the viability, T/C (second compound 0.03 µM, first compound 0.1 µM) was 9.39% and the viability, T/C (second compound 0.03 µM, first compound 0.316 µM) was 6.76%. For the same compound, the viability, T/C (second compound 0.03 µM, first compound 1 µM) was 6.09%, the viability, T/C (second compound 0.03 µM, first compound 3.16 µM) was 6.31% and the viability, T/C (second compound 0.03 µM, first compound 10 µM) was 7.21%. The viability, T/C (second compound 0.0949 µM, first compound 0.0316 µM) was 10.1%, the viability, T/C (second compound 0.0949 µM, first compound 0.1 µM) was 7.59% and the viability, T/C (second compound 0.0949 µM, first compound 0.316 µM) was 5.43%. The viability, T/C (second compound 0.0949 µM, first compound 1 µM) was 4.79%, the viability, T/C (second compound 0.0949 µM, first compound 3.16 µM) was 4.55% and the viability, T/C (second compound 0.0949 µM, first compound 10 µM) was 7.03%. It also gave a viability, T/C (second compound 0.3 µM, first compound 0.0316 µM) of 9.29%, a viability, T/C (second compound 0.3 µM, first compound 0.1 µM) of 7.37% and a viability, T/C (second compound 0.3 µM, first compound 0.316 µM) of 5.01%. For the same compound, the viability, T/C (second compound 0.3 µM, first compound 1 µM) was 4.13%, the viability, T/C (second compound 0.3 µM, first compound 3.16 µM) was 4.98% and the viability, T/C (second compound 0.3 µM, first compound 10 µM) was 5.88%.
